Measured values from PubChem BioAssay (NCI).
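Step 1: Grow cells in 96-well plates. Step 2: Expose to compound for 48 hours at 5 concentrations. Step 3: Interpolate endpoints linearly; if unreached, use highest concentration. TGI is the concentration that stops growth completely.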

Key:
Test in all cases: NCI anticancer screen, dose series, 48 h
KM20L2 colon = test system: KM20L2 colon
MALME-3M melanoma = test system: MALME-3M melanoma
CCRF-CEM leukemia = test system: CCRF-CEM leukemia
NCI-H226 lung = test system: NCI-H226 lung
DMS 273 small cell lung = test system: DMS 273 small cell lung
HCC-2998 colon = test system: HCC-2998 colon
M19-MEL melanoma = test system: M19-MEL melanoma
U251 CNS = test system: U251 CNS
NCI-H522 lung = test system: NCI-H522 lung
UO-31 renal = test system: UO-31 renal
NCI/ADR-RES ovarian = test system: NCI/ADR-RES ovarian
DMS 114 small cell lung = test system: DMS 114 small cell lung
MCF7 breast = test system: MCF7 breast
MDA-N = test system: MDA-N
BT-549 breast = test system: BT-549 breast
T-47D breast = test system: T-47D breast
DU-145 prostate = test system: DU-145 prostate
MDA-MB-435 = test system: MDA-MB-435
SR leukemia = test system: SR leukemia
786-0 renal = test system: 786-0 renal

SMILES | TGI (KM20L2 colon) | TGI (MALME-3M melanoma) | TGI (CCRF-CEM leukemia) | TGI (NCI-H226 lung) | TGI (DMS 273 small cell lung) | TGI (HCC-2998 colon) | TGI (M19-MEL melanoma) | TGI (U251 CNS) | TGI (NCI-H522 lung) | TGI (UO-31 renal) | TGI (NCI/ADR-RES ovarian) | TGI (DMS 114 small cell lung) | TGI (MCF7 breast) | TGI (MDA-N) | TGI (BT-549 breast) | TGI (T-47D breast) | TGI (DU-145 prostate) | TGI (MDA-MB-435) | TGI (SR leukemia) | TGI (786-0 renal)
Nc1c(C(=O)Nc2ccc(C3=NCCN3)cc2)cccc1C(=O)Nc1ccc(C2=NCCN2)cc1 | > 100 µM | > 100 µM | > 100 µM | > 100 µM | > 100 µM | > 100 µM | > 100 µM | > 100 µM | > 100 µM | > 100 µM | > 100 µM | > 100 µM | > 100 µM |  |  |  |  |  |  | 
N=[N+]=CC(=O)CCC(NC(=O)C(CCC(=O)C=[N+]=N)NC(=O)CCC(N)C(=O)O)C(=O)O (stereo unspecified) | > 100 µM | > 100 µM | > 100 µM | > 100 µM | > 100 µM | > 100 µM | > 100 µM | > 100 µM | > 100 µM | > 100 µM | > 100 µM | > 100 µM | > 100 µM |  |  |  |  |  |  | 
COC(=O)c1cc2cc3c(c(O)c2c(=O)o1)O[C@@]1(Oc2c(O)c4c(c(O)c2[C@H]1OC1CC(OC)C(O)C(C)O1)C(=O)C=C(OC)C4=O)[C@H](O)C3 (stereo partly specified) |  |  |  | 17.1 µM |  |  |  |  | 5.19 µM | > 30.4 µM | > 100 µM |  | 10.1 µM | > 100 µM | 4.93 µM | 7.2 µM | 7.87 µM | 7.47 µM | 4.76 µM | 
CN(Cc1cccc2ccccc12)Cc1cccc2ccccc12 |  | 63.4 µM | 34 µM | 86.4 µM |  | 57.9 µM |  | 49.6 µM | 45.4 µM | > 100 µM | > 100 µM |  | 45 µM |  | > 100 µM | 72.2 µM | > 100 µM | > 100 µM | 90.8 µM | > 100 µM
C1CSC(=[N+]2CC[N+](=C3SCCS3)CC2)S1 | > 100 µM | > 100 µM | > 100 µM |  | > 100 µM | > 100 µM | > 100 µM | > 100 µM | > 100 µM | > 100 µM |  | > 100 µM |  |  |  |  |  |  | > 100 µM | > 100 µM
C/C(=N\NC(=S)N1CCN(C)CC1)c1nc2ncccc2[nH]1 |  | > 100 µM | > 100 µM | > 100 µM |  | > 100 µM |  | > 100 µM | > 100 µM | > 100 µM | > 100 µM |  | 80.5 µM |  | > 100 µM | > 100 µM |  | > 100 µM |  | > 100 µM
CC(C)(C)NCC(O)c1ccc(O)c(CO)n1 (stereo unspecified) |  |  |  | > 100 µM |  | > 100 µM |  | > 100 µM | > 100 µM | > 100 µM | > 100 µM |  | > 100 µM | > 100 µM | > 100 µM | > 100 µM | > 100 µM | > 100 µM | > 100 µM | > 100 µM
CC(C)(C)C(=O)CP(=O)(O)O |  | > 100 µM | > 100 µM | > 100 µM |  |  |  | > 100 µM | > 100 µM |  | > 100 µM |  | > 100 µM | > 100 µM | > 100 µM | > 100 µM | > 100 µM | > 100 µM | > 100 µM | > 100 µM
OC(c1cc(-c2ccc(Cl)cc2)nc2ccccc12)C1CCCCN1 (stereo unspecified) |  | 2.94 µM | 2.52 µM | 39 µM |  | 3.94 µM |  | 3.25 µM | 2.77 µM | 2.45 µM | 5.79 µM |  | 3.03 µM | 3.7 µM | 16 µM | 2.96 µM | 3.45 µM | 4.35 µM |  | 3.92 µM
C/C=C(\C)C(=O)OC1C(C)=C2C(C1OC(=O)CCCC)C(C)(OC(C)=O)CC(OC(=O)CCCC)C1(O)C2OC(=O)C1(C)O (stereo unspecified) |  |  | > 100 µM | > 25.8 µM |  | > 100 µM |  | > 100 µM | 7.02 µM | 71.2 µM | > 100 µM |  | > 100 µM | > 100 µM | > 100 µM | > 100 µM | > 100 µM | > 100 µM | > 81 µM | > 60.1 µM
C[n+]1c2ccccc2c(NC(CS)C(=O)O)c2ccccc21 (stereo unspecified) | > 100 µM | > 100 µM |  | > 100 µM | 89.9 µM | > 100 µM | > 100 µM | 89.4 µM | 42.3 µM | 66.6 µM |  | 95.8 µM |  |  |  |  |  |  | 39.4 µM | > 100 µM
Nc1ccc(S(=O)(=O)Nc2ccc(Nc3c4ccccc4nc4ccccc34)cc2)cc1 | 10.6 µM | 10.8 µM | > 4.64 µM | 0.851 µM | 3.08 µM | 8.2 µM | 21.1 µM | 4.94 µM | 3.95 µM | 4.24 µM | 19.8 µM | 1.9 µM | 16 µM | 22.8 µM | 0.981 µM | 31.5 µM | 0.0188 µM | 53 µM | 0.533 µM | 0.352 µM
O=C(O)NCC1CCCCC1 (tested in a mixture with another compound) |  | 7.15 µM | > 100 µM | 41.2 µM |  |  |  | 20.3 µM | 28 µM | > 100 µM | 83.8 µM |  |  | 47.7 µM | 72.6 µM |  | 50.7 µM | 58.1 µM | 72 µM | 77.3 µM
O=C(NC1C=Nc2ccc([N+](=O)[O-])cc2NC1=O)c1cc(Cl)cc([N+](=O)[O-])c1 (stereo unspecified) | > 100 µM |  | > 100 µM | > 100 µM | > 100 µM | > 100 µM | > 100 µM | > 100 µM | 67.8 µM | > 100 µM |  | 84.2 µM |  |  |  |  |  |  | > 100 µM | 
